Test results reported in patent EP4427758A1, “NEW SYNERGISTIC ANTI-INFLAMMATORY, ANTIOXIDANT AND ANTIBACTERIAL ASSOCIATION” (NOOS S.r.l., priority 2023, dated 2024).
Values after ≈ are worked out from the molar mass of the structure shown.

How the values were obtained:
[1] = NBT assay of antioxidant activity (superoxide scavenging); assay type: biochemical; settings: NBT Test (O2^-•); read-out: Scavenging activity of the free radicals IC50
Method: For the inactivation of bacteria by heat, one started at a concentration of 4×10^9 CFU/mL. The bacteria were then centrifuged at 4000 rpm for 10 minutes, the supernatant discarded and replaced with 1 ml of 0.9% NaCl saline solution. The heat inactivation occurred at the temperature of 85°C for 15 minutes.
NBT assay (nitrobluetetrazolium) evaluates the capability of locking the formation of the superoxide radical ^·O2^-; the more ^·O2^- is produced, the more NBT is reduced in formazan. The capability of molecules and compounds to inhibit the NBT reduction by ^·O2^- in presence of β-nicotinammide adenin dinucleotide (β-NADH) and phenazinamethosulfate (PM) is then tested.
The spectrophometric reading was performed by kinetics, by measuring the OD values (λmax 560 nm) immediately and after 15 sec. The absorbance variation was used to calculate the inhibition percentage with respect to the control (solution of EtOH and of the solvent in which the different samples are dissolved).
To this purpose, on previously heat inactivated mixtures of bacteria, 8 serial dilutions were performed according to the scheme reported in figure 1; 20 µL of each dilution were then used in all assays of antioxidant activity according to the protocol indications.

all tested pathogens = assay: MIC determination, summary over all tested pathogens; assay type: cell-based; settings: range over all tested pathogens
Method: (§1) The supernatant from Streptococcus salivarius K12 was used as reference. To this purpose, the Minimum Inhibitory Concentration (MIC) was evaluated. The pathogen microorganisms were the following ones: Staphylococcus aureus NCTC 6571, Streptococcus pyogenes LMG 21599, Streptococcus pneumoniae DSM 20566, Moraxella chatarralis DSM 9143, Haemophilus influenzae DSM 4690.
(§2) L. reuteri LMG P-27481 and S. salivarius K12 were subcultivated on agar plates from cryopreserved cultures. All pathogens, except for H. influenzae DSM 4690, were cultivated on agar BHI (Brain Heart Infusion, Oxoid). The subculture of H. influenzae DSM 4690 requested the presence of traces of lysed red blood cells in the medium.
(§3) In short, the supernatants were obtained for centrifugation of liquid cultures of L. reuteri LMG P27481 and S. salivarius K12, sterilized by filtration. The aliquots were diluted in series for determining the vital count. The supernatants were diluted in series from 100% to 0.19% (v:v).
(§4) The pathogen strains were dosed optically by using the spectrophotometer at OD600 between 0.08-0.100 and diluted 100 times in Schaedler broth or sterile supernatants (to obtain the concentration of 100%).
All samples were incubated for 24 hours at 37°C under aerobic conditions for all strains except for H. influenzae DSM 4690 which required anaerobiosis conditions. […]

[2] = tested on: Staphylococcus aureus NCTC 6571; assay: MIC determination by plate microdilution; assay type: cell-based; settings: NCTC6571, S. aureus, 24 hours at 37°C
Method: as §1, §2, §3, §4
(§5) All samples were incubated for 24 hours at 37°C under aerobic conditions for all strains except for H. influenzae DSM 4690 which required anaerobiosis conditions.
(§6) Moreover, a control with serial dilutions of DMSO was performed in order to exclude that the presence of this diluent could exert an inhibitory effect on the pathogens.

[3] = tested on: Streptococcus pneumoniae DSM 20566; assay: MIC determination by plate microdilution; assay type: cell-based; settings: DSM20566, S. pneumoniae, 24 hours at 37°C
Method: as §1, §2, §3, §4, §5, §6

[4] = tested on: Moraxella chatarralis DSM 9143; assay: MIC determination by plate microdilution; assay type: cell-based; settings: DSM9143, M. chatarralis, 24 hours at 37°C
Method: as §1, §2, §3, §4, §5, §6

[5] = tested on: Streptococcus pyogenes LMG 21599; assay: MIC determination by plate microdilution; assay type: cell-based; settings: LMG21599, S. pyogenes, 24 hours at 37°C
Method: as §1, §2, §3, §4, §5, §6

[6] = tested on: Haemophilus influenzae DSM 4690; assay: MIC determination by plate microdilution; assay type: cell-based; settings: DSM4690, H. influenzae, 24 hours at 37°C, anaerobiosis
Method: as §1, §2, §3, §4, §5, §6

HaCat. cells = assay type: cell-based
Text: MTT test is a colorimetric assay which exploits the capability of cells to convert, at mitochondrial level, the bromide of 3-(4,5-dimethylthiazol-2-il)-2,5-diphenyltetrazolium in the related salt, by evaluating the cell viability. The produced salt is solubilized in organic solvent in order to obtain a homogeneous solution in the single well, measurable spectrophotometrically. Besides, the crystal violet assay is based upon the capability of the homonymous […] dye to bind to DNA of the cells in culture and to return in this way a reliable estimation of the number of cells. […] Before colouring, washings in PBS were carried out. 50 µL of dye (MTT (5 mg/mL in PBS); Crystal violet (2,5 mg/mL in MeOH 20%)) were then added to each well and left in incubation at 37°C for 2 hours (MTT) or stirred on tilting plate for 20 min (Crystal violet). The exceeding dye was washed and the dye was solubilized in organic solvent (DMSO) in order to obtain a homogenous solution in the single well, measurable spectrophotometrically. The measurement of absorbance of the single wells was performed in a plate reader, at the wavelength of 570 nm, by normalizing the values with respect to the control.

L. reuteri LMG P-27481 = assay: Tolerance test: vitality of L. reuteri LMG P-27481 in presence of resveratrol in simulated saliva; assay type: cell-based, Lactobacillus (Limosilactobacillus) reuteri
Method: The simulated saliva (SS) was prepared with 8 g/l of sodium chloride, 0.19 g/l monobasic potassium phosphate, 2.38 g/l sodium phosphate (pH 6.8) and then sterilized (Alanzi et al., 2018). The cryopreserve stock of L. reuteri LMG P-27481 strain was controlled in order to verify the purity thereof and then cultivated on MRS Broth (De Man Rogosa Sharpe, Difco) under microaerophilic conditions at 37°C for 18 hours. The cultures in MRS broth of L. reuteri LMG P-27481 grown under microaerophilic conditions at 37°C for 18 hours were centrifuged, the supernatant discarded an the pellets were washed with sterile demineralized water. […] A test tube with only SS was used as positive control of survival. L. reuteri LMG P-27481 was analysed according to the standard of Mc Farland in order to obtain a vital load of 3×10^8 CFU/ml in the test tubes. […] Aliquots were collected after 5, 10, 30 and 60 minutes for determining vitality. All plates were incubated for 72 hours at 37°C under anaerobic conditions.

IL-37 = assay: Gene expression by real-time PCR in 3D model of in vitro reconstituted skin (EpiDermFT); assay type: cell-based; settings: vs control, after 24 hours
Text: (§7) Evaluation of the gene expression of some cytokines (IL-25, IL-33, IL-37) and of filaggrin (FLG), involucrin (IVL) and loricrin (LOR) in a complex 3D model of in vitro reconstituted skin (EpiDermFT - MATTEK).
(§8) The 3D models of in vitro reconstituted skin constitute optimum systems capable of simulating well the functionalities of a complex organ such as skin and the interactions which are established between numerous cell populations composing it. Then, they try to free from the excessive simplification represented by one single cell line put in culture. The cytokines IL-25 and IL-33 are pro-inflammatory cytokines over-produced by the keratinocytes and by the surface layers of the skin after an insult; on the contrary the cytokine IL-37 is an anti-inflammatory cytokine. At last, the proteins filaggrin (FLG), involucrin (IVL) and loricrin (LOR), are proteins produced by epidermis, fundamental in the constitution of the barrier which protects from external agents and respond to cytokine signals. In particular, during an inflammatory event, the expression of these genes is sub-regulated; on the contrary, an anti-inflammatory state tends to over-express the genes FLG, IVL, LOR.
(§9) The extraction of total RNA was performed by QlAzol Lysis Reagent by following the instructions provided by the firm (Qiagen). The retro-transcription reactions were performed on 4 µg of total RNA by following the instructions provided by the protocol of the kit PROMEGA "GoTaq 2 Step RT qPCR System". The amplification for determining the gene expression, by real-time PCR technique, was performed on BioRad CFX96 machine and the related quantification was performed by the method of 2^-ΔΔCt.

involucrin (IVL) = assay: as above; assay type: cell-based; settings: vs control
Text: as §7, §8, §9

loricrin (LOR) = assay: as above; assay type: cell-based; settings: vs control
Text: as §7, §8, §9

filaggrin (FLG) = assay: as above; assay type: cell-based; settings: vs control
Text: as §7, §8, §9

Structure (SMILES): O=C1O[C@H]([C@@H](O)CO)C(O)=C1O [Ascorbic Acid]
- IC50 [1]: 665 ± 26 µM

Structure (SMILES): Oc1ccc(/C=C/c2cc(O)cc(O)c2)cc1 [Resveratrol, 3,5,4'-trihydroxy-trans-stilbene]
- inhibiting concentrations (all tested pathogens): 80 to 160 µg/mL
- MIC [2]: 160 µg/mL (≈ 701 µM)
- MIC [3]: 80 µg/mL (≈ 350 µM)
- MIC [4]: 160 µg/mL (≈ 701 µM)
- MIC [5]: 160 µg/mL (≈ 701 µM)
- MIC [6]: 80 µg/mL (≈ 350 µM)
- cell count (crystal violet) (HaCat. cells): decrease in vitality and cell count
- cell viability (MTT) (HaCat. cells): decrease in vitality
- %S (% of survival of microorganisms) (L. reuteri LMG P-27481; SS + 0.5 mg/ml Resveratrol, T5): 99.9%
- %S (% of survival of microorganisms) (L. reuteri LMG P-27481; SS + 0.5 mg/ml Resveratrol, T10): 99.6%
- %S (% of survival of microorganisms) (L. reuteri LMG P-27481; SS + 0.5 mg/ml Resveratrol, T30): 99.3%
- %S (% of survival of microorganisms) (L. reuteri LMG P-27481; SS + 0.5 mg/ml Resveratrol, T60): 99.2%
- %S (% of survival of microorganisms) (L. reuteri LMG P-27481; SS + 1 mg/ml Resveratrol, T5): 99.8%
- %S (% of survival of microorganisms) (L. reuteri LMG P-27481; SS + 1 mg/ml Resveratrol, T10): 99.6%
- %S (% of survival of microorganisms) (L. reuteri LMG P-27481; SS + 1 mg/ml Resveratrol, T30): 99.6%
- %S (% of survival of microorganisms) (L. reuteri LMG P-27481; SS + 1 mg/ml Resveratrol, T60): 99.4%
- %S (% of survival of microorganisms) (L. reuteri LMG P-27481; SS + 2.5 mg/ml Resveratrol, T5): 99.9%
- %S (% of survival of microorganisms) (L. reuteri LMG P-27481; SS + 2.5 mg/ml Resveratrol, T10): 99.6%
- %S (% of survival of microorganisms) (L. reuteri LMG P-27481; SS + 2.5 mg/ml Resveratrol, T30): 99.5%
- %S (% of survival of microorganisms) (L. reuteri LMG P-27481; SS + 2.5 mg/ml Resveratrol, T60): 99.2%
- %S (% of survival of microorganisms) (L. reuteri LMG P-27481; SS + 5 mg/ml Resveratrol, T5 (5 minutes contact), 3×10^8 CFU/ml): 99.7%
- %S (% of survival of microorganisms) (L. reuteri LMG P-27481; SS + 5 mg/ml Resveratrol, T10): 99.5%
- %S (% of survival of microorganisms) (L. reuteri LMG P-27481; SS + 5 mg/ml Resveratrol, T30): 99.3%
- %S (% of survival of microorganisms) (L. reuteri LMG P-27481; SS + 5 mg/ml Resveratrol, T60): 99.0%
- %S (% of survival of microorganisms) (L. reuteri LMG P-27481; SS + 5 mg/ml Resveratrol, T60, listed as resveratrol): higher than 99%
- expression of IL-37 (IL-37): under-expression
- expression of IVL (involucrin (IVL)): minimum expression variations
- expression of LOR (loricrin (LOR)): minimum expression variations
- expression of FLG (filaggrin (FLG)): minimum expression variations
